# According to patent US6369103B1, “Method for preventing or reducing risk of onset of cardiovascular events employing an HMG CoA reductase inhibitor” (Bristol-Myers Squibb Company, priority 1994, dated 2002):
# Where two headings read alike, the source gives them in different places.
# Experiments:
# [1] = system: patients with primary hypercholesterolemia and ≧2 additional risk factors for coronary artery disease; assay: Multinational randomized double-blind placebo-controlled trial: effects on plasma lipids; assay type: in vivo, human; conditions: for LDL cholesterol, Mean ± SEM: calculated (Friedewald)
# Method: J. Cardiology Vol. 72, Nov. 1, 1993, 1031-1036. […] Lipid analyses were performed at local laboratories and a central laboratory. […] The LDL cholesterol concentration was calculated using the Friedewald equation converted to mmol/liter: […] To assess the comparability of treatment groups, baseline values and demographic characteristics for all randomized patients were summarized for each treatment group by descriptive statistics. The primary efficacy variables were the serum lipids analyzed at local laboratories at weeks 0, 6, 13 and 26. All values were transformed to natural logarithms for the analysis. Geometric means were used to summarize lipid values by treatment group at each visit. Treatment groups were compared by analysis of covariance of change from baseline in transformed values with baseline as a covariate.
# [2] = system: patients with primary hypercholesterolemia and ≧2 additional risk factors for coronary artery disease; conditions: for Sudden cardiac death, number / Myocardial infarction (fatal and nonfatal), number: n = 530; for Myocardial infarction (fatal and nonfatal), number: p = 0.031 vs placebo
# Method: This example describes a large multinational study, “Effects of Pravastatin in Patients with Serum Total Cholesterol Levels from 5.2 to 7.8 mmol/liter (200 to 300 mg/dl) Plus Two Additional Atherosclerotic Risk Factors,” The Pravastatin Multinational Study Group for Cardiac Risk Patients, reported in Am. J. Cardiology Vol. 72, Nov. 1, 1993, 1031-1036. The study was designed to examine the efficacy and safety of pravastatin, together with diet modification and advice on smoking, in patients with primary hypercholesterolemia and ≧2 additional risk factors for coronary artery disease (CAD).
# (§1) The efficacy and long-term safety of pravastatin in hypercholesterolemic patients were investigated in this multicenter, randomized, double-blind placebo-controlled trial. After dietary stabilization and recommendations for lifestyle modification during a 6-week placebo lead-in period, patients were randomized to receive pravastatin 20 mg or placebo at bedtime. After 13 weeks, patients who responded (defined as a decrease in total cholesterol level by >15% from baseline or to <5.2 mmol/liter [200 mg/dl]) to treatment continued on the same study medication for 13 additional weeks. […] Compliance with dietary instructions and other lifestyle counseling were periodically assessed. After completing the initial 26-week period, patients were given the option to continue in an additional 26-week double-blind phase and, following the first 52 weeks, a final 26-week period that was open-label for pravastatin in patients originally assigned to that treatment group. Additional lipid-lowering medications, except other 3-hydroxy-3-methylglutaryl coenzyme A reductase inhibitors and fibrates, could be added to patients not meeting treatment goals at the end of the first 26 weeks. Fibrates could be added in the open-label period of the study in patients originally assigned placebo.
# The protocol was approved by each local ethics committee, and patients gave informed consent before randomization. The study population was to be limited to men and postmenopausal or surgically sterile women 20 to 69 years old. At entry, patients were to have a serum total cholesterol concentration between 5.2 and 7.8 mmol/liter (200 and 300 mg/dl) despite dietary intervention as well as ≧2 additional risk factors for CAD as defined in the protocol (male gender, systemic hypertension, cigarette smoking, family history of CAD, prior myocardial infarction, or history of angina pectoris). Exclusion criteria included (1) a history of homozygous familial hypercholesterolemia; (2) types I, III, IV or V hyperlipoproteinemia; (3) significant metabolic, renal, hepatic or endocrine disease; (4) history of drug abuse; or (5) obesity (>40% above ideal body weight). Patients were also excluded if, within 8 weeks of randomization, they were taking cortico-steroids immunosuppressive drugs, investigational drugs, androgens, or estrogens and progestins for indications other than replacement therapy.
# (§2) After ≧4 weeks of dietary stabilization, 2 qualifying blood samples for the lipid profile were drawn approximately 1 week apart after an overnight fast of ≧10 hours. Seated systolic and diastolic blood pressures were recorded at 2 weeks and 1 week before randomization; other risk factors were assessed 1 week before randomization. Baseline lipid and laboratory safety tests, blood pressure and body weight measurements, and an ophthalmologic evaluation (including visual acuity and determination of lenticular opacities) were performed at randomizations. The presence of concurrent disease and the use of concomitant medications were also recorded. When patients returned for clinic visits at weeks 6, 13 and 26, body weight and blood pressure were measured, morning samples for lipid profiles and laboratory safety tests were drawn, and clinical adverse events and concomitant medications were recorded. Drug compliance (by tablet count) was assessed and the ophthalmologic evaluation was repeated at weeks 13 and 26.
# [3] = system: patients with primary hypercholesterolemia and ≧2 additional risk factors for coronary artery disease; conditions: in vivo
# Method: as §1, §2
# Laboratory safety tests were performed by local laboratories and consisted of hematology (hemoglobin, red blood cell count, hematocrit, platelet count, and white blood cell count and differential) and blood chemistries (urea, creatinine, uric acid, calcium, total bilirubin, alkaline phosphatase, aspartate aminotransferase, alanine aminotransferase, γ-glutamyl aminotransferase, total protein, albumin and creatine kinase).
# The incidence of adverse events in each treatment group was summarized by body system and individual events. In addition, events predefined by the protocol to be serious, e.g., fatal events or events leading to or prolonging hospitalization, were tabulated. Hematology and biochemistry variables were summarized and analyzed by geometric means and analysis of covariance of change from baseline. Ophthalmologic results were summarized in terms of the number of lenticular opacities present at baseline and at weeks 13 and 26. […] Differences in the incidence of adverse events were typically analyzed by the chi-square test with the Fisher's exact test used for rare events. Results were reported as statistically significant if a 2-sided p value ≦0.05 was attained.
# [4] = system: patients with primary hypercholesterolemia and ≧2 additional risk factors for coronary artery disease; conditions: Pearson et al. commentary, cited from earlier work
# [5] = baseline to Week 26, p<0.001 vs placebo
# [6] = end of initial 26 weeks, 20 to 40 mg once daily (average dose 26.5 mg)
# [7] = week 13, 20 mg at bedtime, p<0.001 compared with placebo
# [8] = first 26 weeks, listed as Pravastatin
smiles,measurement,setting,value
CC[C@H](C)C(=O)O[C@H]1C[C@H](O)C=C2C=C[C@H](C)[C@H](CC[C@@H](O)C[C@@H](O)CC(=O)O)[C@H]21 [pravastatin],"LDL cholesterol, Mean ± SEM","[1]; Baseline, n=499",4.69 ± 1.05 mmol/L
same,"HDL cholesterol, Mean ± SEM","[1]; Baseline, n=500",1.14 ± 0.35 mmol/L
same,"Triglycerides, Mean ± SEM","[1]; Baseline, n=520",1.77 ± 0.82 mmol/L
same,"Total cholesterol, Mean ± SEM","[1]; Baseline, n=521",6.81 ± 0.78 mmol/L
same,"HDL cholesterol, Mean ± SEM","[1]; Week 26, n=459",1.23 ± 0.37 mmol/L
same,"LDL cholesterol, Mean ± SEM","[1]; Week 26, n=459",3.47 ± 0.74 mmol/L
same,"Total cholesterol, Mean ± SEM","[1]; Week 26, n=483",5.55 ± 0.82 mmol/L
same,"Triglycerides, Mean ± SEM","[1]; Week 26, n=483",1.56 ± 0.74 mmol/L
same,"LDL cholesterol, % Change",[1]; [5],−26.01%
same,"Total cholesterol, % Change",[1]; [5],−18.50%
same,"Triglycerides, % Change",[1]; [5],−11.86%
same,"HDL cholesterol, % Change","[1]; baseline to Week 26, p<0.005 vs placebo",7.90%
same,increase in HDL cholesterol concentrations,[1]; [6],8%
same,reduction in LDL cholesterol,[1]; [6],26%
same,reduction in total cholesterol,[1]; [6],19%
same,reduction in triglycerides,[1]; [6],12%
same,elevation in HDL cholesterol,[1]; [7],7%
same,reduction in LDL cholesterol,[1]; [7],26%
same,reduction in total cholesterol,[1]; [7],19%
same,reduction in triglycerides,[1]; [7],12%
same,patients who achieved the target cholesterol goal,"[1]; week 13, goal: total cholesterol decrease >15% from baseline or to <5.2 mmol/liter",66%
same,number of patients who achieved the target cholesterol goal,"[1]; week 13, of 491 patients",326
same,patients who attained an LDL cholesterol concentration of ≦3.4 mmol/liter (130 mg/dl),[1]; week 26,47%
same,changes in visual acuity (without correction) and incidence of new ocular opacities,"[2]; both, human, in vivo",limited and similar in the 2 treatment groups
same,"Acute congestive heart failure, number","[2]; both, human, in vivo, 26 weeks",1
same,"Central nervous system serious adverse events, Subtotal","[2]; both, human, in vivo, 26 weeks",0
same,"Cerebral infarction, number","[2]; both, human, in vivo, 26 weeks",0
same,"Other serious adverse events, Subtotal","[2]; both, human, in vivo, 26 weeks",4
same,"Other serious adverse events: Diabetes, number","[2]; both, human, in vivo, 26 weeks",1
same,"Other serious adverse events: Gastrointestinal, number","[2]; both, human, in vivo, 26 weeks",2
same,"Other serious adverse events: Peripheral arterial disease, number","[2]; both, human, in vivo, 26 weeks",1
same,"Other serious adverse events: Pulmonary, number","[2]; both, human, in vivo, 26 weeks",0
same,Serious cardiovascular adverse events,"[2]; both, human, in vivo, 26 weeks",0.2%
same,"Serious cardiovascular adverse events (Subtotal), number","[2]; both, human, in vivo, 26 weeks",1
same,"Surgery serious adverse events, Subtotal","[2]; both, human, in vivo, 26 weeks",1
same,"Surgery: Abdominal (hernia), number","[2]; both, human, in vivo, 26 weeks",0
same,"Surgery: Breast, number","[2]; both, human, in vivo, 26 weeks",0
same,"Surgery: Coronary artery bypass graft, number","[2]; both, human, in vivo, 26 weeks",0
same,"Surgery: Joint (knee), number","[2]; both, human, in vivo, 26 weeks",1
same,"Syncope, number","[2]; both, human, in vivo, 26 weeks",0
same,"Total of all serious adverse events, number of events","[2]; both, human, in vivo, 26 weeks",6
same,"Transient ischemic attack, number","[2]; both, human, in vivo, 26 weeks",0
same,"Unstable angina leading to hospitalization, number","[2]; both, human, in vivo, 26 weeks",0
same,cardiovascular clinical adverse events,"[2]; both, human, in vivo, 26 weeks",2.8%
same,"cardiovascular clinical adverse events, number","[2]; both, human, in vivo, 26 weeks",15
same,patients reporting adverse events,"[2]; both, human, in vivo, 26 weeks",22.6%
same,"patients reporting adverse events, number","[2]; both, human, in vivo, 26 weeks",120
same,patients with serious adverse events,"[2]; both, human, in vivo, 26 weeks",0.9%
same,"patients with serious adverse events, number","[2]; both, human, in vivo, 26 weeks",5
same,patients withdrawn from the study because of an adverse event,"[2]; both, human, in vivo, 26 weeks",4.7%
same,"adverse events thought to be related to pravastatin administration, number","[2]; both, human, in vivo, 52 weeks",1
same,"cases of unstable angina, number","[2]; both, human, in vivo, 52 weeks",1
same,patients reporting clinical adverse events,"[2]; both, human, in vivo, 52 weeks",18.5%
same,"patients reporting clinical adverse events, number","[2]; both, human, in vivo, 52 weeks",55
same,patients who withdrew because of adverse events,"[2]; both, human, in vivo, 52 weeks",1.7%
same,"episodes of unstable angina, number","[2]; both, human, in vivo, 78 weeks",1
same,"myocardial infarctions, number","[2]; both, human, in vivo, 78 weeks",1
same,"Sudden cardiac death, number",[2]; first 26 weeks,none
same,"Sudden cardiac death, number",[2]; [8],0
same,"Myocardial infarction (fatal and nonfatal), number",[2]; first 26 weeks,no patient and none
same,"Myocardial infarction (fatal and nonfatal), number",[2]; [8],0
same,deaths,"[2]; first 26 weeks, three placebo-treated patients died",no pravastatin-treated patient died
same,"Total of all serious adverse events, number of events","[2]; human, in vivo",Six
same,"patients who sustained myocardial infarctions, number","[2]; human, in vivo",One
same,"patients who withdrew because of adverse events, number","[2]; human, in vivo",Five
same,"patients withdrawn because of angioedema thought to be possibly related to drug therapy, number","[2]; human, in vivo",One
same,"patients withdrawn because of creatine kinase elevation or musculoskeletal events, number","[2]; human, in vivo",Three
same,"patients withdrawn from the study because of an adverse event, number","[2]; human, in vivo",Twenty-five
same,serious cerebrovascular events,"[2]; human, in vivo",none
same,"total incidence of clinical adverse events, pravastatin vs placebo","[2]; human, in vivo",no differences
same,deaths,[2]; long-term portion of the trial,no deaths
same,patients with elevations of creatine kinase values to >4 times pretreatment values,"[3]; both, human",2.6%
same,"patients with elevations of creatine kinase values to >4 times pretreatment values, number","[3]; both, human",14
same,"patients with transient, asymptomatic elevations of hepatic transaminases to >3 times the upper limit of normal","[3]; both, human",1.1%
same,"patients with transient, asymptomatic elevations of hepatic transaminases to >3 times the upper limit of normal, number","[3]; both, human",6
same,"magnitude of the increases in alanine aminotransferase, aspartate aminotransferase and creatine kinase",[3],3-12%
same,mean level of alanine aminotransferase,[3],16.02 U/liter
same,mean level of aspartate aminotransferase,[3],17.24 U/liter
same,mean level of creatine kinase,[3],70.62 U/liter
same,syndrome of drug-induced myopathy (myalgia with creatine kinase >10 times upper limits of normal),[3],not observed in any patient
same,"medical and surgical events in the coronary and cerebrovascular beds, number","[4]; first 26 weeks, 21 in the placebo group",1
same,"cases of myocardial infarction or unstable angina, number","[4]; over the 78 weeks of the study, 16 in the placebo group",2
